18 molecules from paper PMC9928118, “Funneling modulatory peptide design with generative models: Discovery and characterization of disruptors of calcineurin protein-protein interactions” (PLOS Computational Biology, 2023) can be followed below.

The target of assay [1] is T1, Calcineurin (Cn) catalytic domain (Cn A), PxIxIT binding site (Homo sapiens, UniProt Q08209, L343A/M347D/Y341S).
T1 construct: the gene encoding to residues 2–347 with substitutions Y341S, L343A, and M347D was expressed as a cleavable GST fusion protein; GST; made in house; host or cells: E. coli BL21
Description: Fluorescence polarization (FP) competition assay against FITC-labeled PVIVIT peptide. Particulars: for IC50: read-out: IC50 (competition with FITC-labeled PVIVIT peptide for Cn binding), 100nM FITC-labeled PVIVIT peptide, 4uM Cn A, variable peptide concentrations, 96-well plate, triplicate, single site inhibition model fit, NB = No binding; for Ability to compete with PVIVIT for Cn binding: 100nM FITC-labeled PVIVIT peptide, 4uM Cn A, result in words. How it is done: Polarization levels were read and normalized values were fitted to a single site model.
Selected peptides were synthesized and their ability to specifically bind the Cn PxIxIT binding site was evaluated by FP competition assay (Methods).
The catalytic domain of Cn was expressed as described in [84, 85]. […] Growing in LB, after reaching to OD(600nm) = 0.8, protein expression was induced by the addition of 1 mM IPTG at 25°C. The cells were harvested after 16h and resuspended in PBS-based lysis buffer suitable for downstream purification onto GST column (Glutathione Sepharose 4 Fast Flow) of the soluble fraction after disrupted by sonication and remove of all non-soluble debris by centrifuge. Elution from the GST column was further purified by size exclusion chromatography with the superdex75 column.
Fluorescence measurements were performed on samples arrayed in a 96-well plate using Biotek HybridH1 reader equipped with a polarized optic system. All measurements were done in triplicate.

For assay [2], the system named is GST-tagged Cn. As to the kind of experiment: PEPperPRINT peptide microarray binding assay with GST-tagged Cn. The following applies: max over the duplicate spots (Location on chip).
Assay [3] has as its system GST-tagged Cn. The assay is described as above. The following applies: GST-tagged Cn, mean over the duplicate spots (Location on chip). A digest of the protocol:
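Qualitative binding: peptides printed on a PEPperPRINT microarray were incubated overnight at 4 °C with 1 mg/ml GST-tagged Cn, then detected with Alexa-Fluor 647 anti-GST antibody. Log fluorescence was baseline-corrected, averaged over duplicate spots, Z-normalized and averaged across five repeats.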

Assay [4] concerns the target T2, catalytic domain of Calcineurin (Cn A), residues 2-347 with Y341S, L343A, M347D (UniProt Q08209 2-347, Y341S | L343A | M347D).
T2 construct: Calcineurin catalytic domain (calcineurin A), residues 2-347, with substitutions Y341S, L343A, M347D; Expressed as a cleavable GST fusion; source: E. coli BL21, purified (Glutathione Sepharose 4 Fast Flow, size exclusion on Superdex 75)
Description: fluorescence polarisation; competition: variable concentrations of non-labeled peptide added to 100 nM FITC-labeled PVIVIT peptide and 4 uM Cn A, 96-well plate, triplicate; fitted to a single site inhibition model. The following applies: both partners purified.

T1 sequence (Q08209 2-347 Y341S/L343A/M347D): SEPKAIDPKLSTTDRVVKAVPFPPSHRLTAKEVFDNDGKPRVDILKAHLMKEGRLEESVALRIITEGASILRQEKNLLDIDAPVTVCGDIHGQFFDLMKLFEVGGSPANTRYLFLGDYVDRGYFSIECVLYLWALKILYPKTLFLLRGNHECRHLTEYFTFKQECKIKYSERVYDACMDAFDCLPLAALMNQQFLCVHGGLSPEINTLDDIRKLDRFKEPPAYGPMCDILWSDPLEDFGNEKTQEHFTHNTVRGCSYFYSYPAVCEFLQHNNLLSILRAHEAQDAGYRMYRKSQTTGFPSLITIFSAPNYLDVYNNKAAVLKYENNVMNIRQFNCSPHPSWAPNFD
T2 sequence (Q08209 2-347 Y341S/L343A/M347D): as above

As to Ac-TFWTNPQYRIKLEEAD-NH2 [rbmCAPN11_3], in assay [1], the IC50 is more than 257 µM. In the case of Ac-TFHTNPQYRIKLEEPD-NH2 [rbmCAPN11_2], the IC50 in assay [1] is more than 257 µM. For the molecule Ac-RTYINPFMLFEDMGSR-NH2 [rbmSFB3], in assay [1], the IC50 is more than 257 µM. Take Ac-TTAMNPQFFVQIPRTA-NH2 [CAPN11]: the IC50 in assay [1] is more than 257 µM. Take Ac-AAGAGVGIVITVTEAE-NH2 [rbmAKAP79]: the “Ability to compete with PVIVIT for Cn binding” value in assay [1] was “successfully competed with PVIVIT binding”. Consider Ac-ADGAGVGIVITVTEAE-NH2 [rbmAKAP79_2], for which the “Ability to compete with PVIVIT for Cn binding” value in assay [1] was “successfully competed with PVIVIT binding”. TFWTNPQFRIKLEDED [SeqRBMlowT_645]: in the assay on GST-tagged Cn [2], the “Chip Fluorescence (max)” value is 2.265. Further, the “Chip Fluorescence (mean)” value in the assay on GST-tagged Cn [3] is on record as 1.091. For the molecule PTNGIPEMQRNSAKSA [Seqshuffled_9538], in the assay on GST-tagged Cn [2], the “Chip Fluorescence (max)” value was 2.2337. In addition, in the assay on GST-tagged Cn [3], the “Chip Fluorescence (mean)” value is recorded as 0.992.

For “KAYMCPYMQFIEGGRR [SeqSFB3_Ictalurus_punctatus]”, the “Chip Fluorescence (max)” value in the assay with GST-tagged Cn [2] amounted to 2.501. The “Chip Fluorescence (mean)” value in the assay on GST-tagged Cn [3] was found to be 1.763. With AEVGIVRFSRHPVAQD [Seqshuffled_9961], in the assay on GST-tagged Cn [2], the “Chip Fluorescence (max)” value was determined as 2.2. The “Chip Fluorescence (mean)” value in the assay on GST-tagged Cn [3] is recorded as 0.06577.

B1: rbmCAPN11 (peptide)
peptide: Ac-TYWTNPQFRVTLEDPD-NH2
notes: cRBM-designed (low temperature sampling); (Schistosoma mansoni CAPN11), 2 mutations; source: synthetic peptide (peptide2 Inc)
Turning to B1, the IC50 in assay [4] was determined as 257 µM.

B2: rbmTRESK (peptide)
peptide: Ac-ADEAIPEIVISKPEEP-NH2
notes: cRBM-designed (low temperature sampling); source: synthetic peptide (peptide2 Inc)
With B2, the IC50 in assay [4] was determined as 14 µM.

B3: rbmRIPOR2 (peptide)
peptide: Ac-ASVSNPEITVTSAETE-NH2
notes: cRBM-designed; source: synthetic peptide (peptide2 Inc)
With B3, the IC50 in assay [4] is 79 µM.

B4: rbmTRESK_2 (peptide)
peptide: Ac-ADEAIPEITITSAELP-NH2
notes: as for B2
Consider B4, for which the IC50 in assay [4] was found to be 60 µM.

B5: rbmAKAP79 (peptide)
peptide: Ac-AAGAGVGIVITVTEAE-NH2
notes: as for B2
For the molecule B5, the IC50 in assay [4] is 57 µM.

B6: rbmAKAP79_2 (peptide)
peptide: Ac-ADGAGVGIVITVTEAE-NH2
notes: as for B2
On to B6, for which the IC50 in assay [4] is 69 µM.

B7: TRESK peptide (peptide)
peptide: Ac-ADEAVPQIIISAEELP-NH2
notes: source: synthetic peptide (peptide2 Inc)
For B7, the IC50 in assay [4] turned out to be 54 µM.

B8: rbmRIPOR2_2 (peptide)
peptide: Ac-HVSSSPRITITPTQHR-NH2
notes: as for B2
On to B8, for which, in assay [4], the IC50 is 200 µM.
